Reference: PMC9318802, “Optimization of 2-Aminoquinazolin-4-(3H)-one Derivatives as Potent Inhibitors of SARS-CoV-2: Improved Synthesis and Pharmacokinetic Properties” (Pharmaceuticals, 2022)
“Also recorded” adds a separate entry of the source. Read-outs that look alike come from different tables or passages of the source.

How the values were obtained:
[1] = in vitro; settings: African green monkey
[2] = system: Vero cells; settings: Vero cell assay, previously reported; cited from earlier work
[3] = rats, oral, 10 mg/kg; ref previously reported; cited from earlier work
[4] = system: SARS-CoV-2; test: Anti-SARS-CoV-2 immunofluorescence assay in Vero cells; type: cell-based; settings: for IC50: Severe acute respiratory syndrome coronavirus 2, immunofluorescence, at least two independent experiments
[5] = molecular target: hERG K+ channel (Homo sapiens, UniProt Q12809); test: cell-based
Chain of hERG K+ channel (Q12809 whole entry): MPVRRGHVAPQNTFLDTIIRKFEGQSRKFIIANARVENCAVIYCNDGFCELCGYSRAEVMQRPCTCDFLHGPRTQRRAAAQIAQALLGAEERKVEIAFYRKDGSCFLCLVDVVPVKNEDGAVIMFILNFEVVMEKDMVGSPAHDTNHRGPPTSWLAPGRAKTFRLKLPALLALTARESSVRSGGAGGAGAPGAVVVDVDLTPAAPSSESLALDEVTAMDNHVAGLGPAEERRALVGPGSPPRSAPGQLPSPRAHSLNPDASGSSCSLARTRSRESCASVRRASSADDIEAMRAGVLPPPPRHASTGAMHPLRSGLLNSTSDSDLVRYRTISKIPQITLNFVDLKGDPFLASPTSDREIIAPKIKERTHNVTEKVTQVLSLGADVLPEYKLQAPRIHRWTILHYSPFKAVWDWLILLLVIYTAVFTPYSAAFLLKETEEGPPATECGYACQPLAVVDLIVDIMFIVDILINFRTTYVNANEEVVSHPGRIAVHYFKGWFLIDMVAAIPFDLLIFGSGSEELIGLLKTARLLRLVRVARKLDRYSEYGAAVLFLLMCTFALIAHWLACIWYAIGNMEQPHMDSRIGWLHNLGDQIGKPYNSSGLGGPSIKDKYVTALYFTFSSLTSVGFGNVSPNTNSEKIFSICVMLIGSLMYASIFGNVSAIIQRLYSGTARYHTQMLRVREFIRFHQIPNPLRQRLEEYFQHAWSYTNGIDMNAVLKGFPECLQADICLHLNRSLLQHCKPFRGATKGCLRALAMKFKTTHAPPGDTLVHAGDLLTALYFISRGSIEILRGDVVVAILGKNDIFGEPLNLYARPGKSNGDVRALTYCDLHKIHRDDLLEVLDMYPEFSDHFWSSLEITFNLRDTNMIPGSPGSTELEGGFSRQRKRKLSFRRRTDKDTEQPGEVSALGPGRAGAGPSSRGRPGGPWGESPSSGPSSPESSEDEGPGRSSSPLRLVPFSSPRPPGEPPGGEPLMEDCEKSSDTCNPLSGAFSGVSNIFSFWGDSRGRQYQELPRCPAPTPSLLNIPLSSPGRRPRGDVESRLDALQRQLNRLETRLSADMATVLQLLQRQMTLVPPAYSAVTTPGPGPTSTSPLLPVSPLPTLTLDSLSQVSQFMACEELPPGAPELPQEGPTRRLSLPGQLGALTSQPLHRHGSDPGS

[6] = EZ-Cytox cell viability assay, NIH 3T3; settings: mouse, Cytotoxicity (CC50) NIH 3T3, EZ-Cytox
[7] = system: NIH 3T3, mouse embryonic fibroblast cells; test: EZ-Cytox cell viability assay, NIH 3T3; settings: read-out: Cytotoxicity (CC50) NIH 3T3; EZ-Cytox, 24 h
[8] = system: SARS-CoV-2 spike pseudo-typed lentivirus; test: microbe, parasite or virus in culture; type: cell-based; settings: Severe acute respiratory syndrome coronavirus 2, NCI-H1299, 48 h; read-out: IC50 (SARS-CoV-2 spike pseudo-typed virus entry)
[9] = In vivo oral pharmacokinetics in Sprague Dawley rats; settings: rat, blood, male Sprague Dawley rats, 10 mg/kg; for Cmax / Tmax / half-life: n = 3; for AUC(0-t): n = 3, read-out: AUC24h
Protocol: Compounds 2a–c were selected for in vivo pharmacokinetic studies based on their ClogP and selectivity index (SI) values. Each compound was administered orally at 10 mg/kg to three Sprague Dawley rats (Figure 2). […] The lipophilic properties and the small size of the fluorine moieties likely enhance the absorption of compound 2b.
Figure 2 Pharmacokinetic evaluation of compounds 1a, 2a, 2b, and 2c. Each compound was orally administrated to male Sprague Dawley rats (n = 3) at 10 mg/kg. TEXT PRINTED IN THE PICTURE: 1a: Tmax (h): 2.50; Cmax (μg/mL): 0.87; T1/2 (h): 5.65; AUC24h (μg·h/mL): 6.62 | 2a: Tmax (h): 4.67; Cmax (μg/mL): 1.85; T1/2 (h): 4.95; AUC24h (μg·h/mL): 24.31 | 2b: Tmax (h): 4.00; Cmax (μg/mL): 5.56; T1/2 (h): 1.96; AUC24h (μg·h/mL): 41.57 | 2c: Tmax (h): 3.33; Cmax (μg/mL): 1.96; T1/2 (h): 6.69; AUC24h (μg·h/mL): 10.77

[10] = In vivo single-dose toxicity in male Sprague Dawley rats; parameters: species or system rat; settings: for Clinical signs: animals with liquid feces: n = 4, recovered by day 4; for Body weight change: recovered on day 14
Protocol: After single administration using 55% PEG200 in distilled water as a vehicle, each group of four rats was monitored for 15 days. […] Therefore, the approximate lethal dose of compound 2b in this study was estimated to be more than 500 mg/kg.
Figure 3 Body weight changes in male rats (n = 4) treated with compound 2b in a single-dose toxicity study. ** p < 0.01, compared to the control at the same time point (Dunnett’s test).

[11] = EZ-Cytox cell viability assay, L929; settings: mouse, Cytotoxicity (CC50) L929, EZ-Cytox
[12] = in vitro; settings: Chinese hamster, Cytotoxicity (CC50) CHO-K1, EZ-Cytox, 24 h
[13] = EZ-Cytox cell viability assay, HFL-1; settings: human, Cytotoxicity (CC50) HFL-1, EZ-Cytox
[14] = Microsomal stability assay, rat liver microsomes; settings: percentage of original compound remaining after 30 min incubation, NADPH
[15] = Microsomal stability assay, human liver microsomes; settings: percentage of original compound remaining after 30 min incubation, NADPH
[16] = Cytotoxicity (CC50) in uninfected Vero cells; settings: African green monkey
[17] = parameters: method as in PMID 34914868, PMID 34914869; settings: cited from earlier work
[18] = CC50/IC50 for inhibiting SARS-CoV-2 infection, Vero cells

O=C(C(O)OCc1ccccc1)N(c1cc(Cl)cc(Cl)c1)c1nc2cc(Cl)ccc2c(=O)[nH]1 (stereo not shown)
melting point: 282 to 284 °C

O=c1[nH]c(Nc2cc(Cl)cc(Cl)c2)nc2cc(Cl)ccc12 [Compound 1a, 7-Chloro-2-((3,5-dichlorophenyl)amino)quinazolin-4(3H)-one]
CC50 at 24 h [1]: > 25 µM
Cytotoxicity [2]: no cytotoxicity
AUC24h [3]: 6620 ng·h/mL
Cmax [3]: 870 ng/mL
IC50 ([4]; Vero cells): 0.23 µM

O=c1[nH]c(Nc2cc(F)cc(F)c2)nc2cc(Cl)ccc12 [Compound 1b, 7-Chloro-2-((3,5-difluorophenyl)amino)quinazolin-4(3H)-one]
CC50 at 24 h [1]: 18 µM
SI (selectivity index) [4, 18]: 74
IC50 ([4]; Vero cells): 0.24 µM

CC(=O)N(c1cc(Cl)cc(Cl)c1)c1nc2cc(Cl)ccc2c(=O)[nH]1 [Compound 2a, N-(7-Dichloro-4-oxo-3,4-dihydroquinazolin-2-yl)-N-(3,5-dichlorophenyl)acetamide]
CC50 at 24 h [1]: 9.39 µM
IC50 [5]: 15.2 µM
CC50 at 24 h [6]: < 10 µM
CC50 [7]: 7.6 µM
melting point: 236 to 238 °C
IC50 [8]: 0.54 µM
SI (selectivity index) [4]: 26
IC50 ([4]; Vero cells): 0.33 µM
Cmax [9]: 1850 ng/mL
Tmax [9]: 4.67 h
half-life [9]: 4.95 h
AUC(0-t) [9]: 24300 ng·h/mL

CC(=O)N(c1cc(F)cc(F)c1)c1nc2cc(Cl)ccc2c(=O)[nH]1 [Compound 2b, N-(7-Chloro-4-oxo-3,4-dihydroquinazolin-2-yl)-N-(3,5-difluorophenyl)acetamide]
CC50 at 24 h [1]: > 25 µM
IC50 [5]: 30 µM
CC50 at 24 h [6]: 22.7 µM
Clinical signs: animals with liquid feces ([10]; 250 mg/kg group): one animal
Body weight change ([10]; 250 mg/kg, day 4, Dunnett's test): statistically significant reduction
Clinical signs: animals with liquid feces ([10]; 500 mg/kg group): two animals
Body weight change ([10]; 500 mg/kg, days 4 and 8, Dunnett's test): statistically significant reduction
Gross observations of the organs ([10]; 250 and 500 mg/kg): did not reveal changes in any of the organs examined
Mortality ([10]; single oral dose 250 and 500 mg/kg, monitored 15 days): no deaths; also recorded: no mortality; also recorded: no animals died
Approximate lethal dose ([10]; single oral dose, male rats): greater than 500 mg/kg
IC50 [8]: 0.99 µM
CC50 at 24 h [11]: 17.9 µM
CC50 [12]: 14.6 µM
CC50 at 24 h [13]: 12.6 µM
IC50 ([4]; Vero cells): 0.29 µM
Cmax [9]: 5560 ng/mL
Tmax [9]: 4 h
half-life [9]: 1.96 h
AUC(0-t) [9]: 41600 ng·h/mL

CC(=O)N(c1cc(Cl)cc(Cl)c1)c1nc2cccc(O)c2c(=O)[nH]1 [Compound 2c, N-(3,5-Dichlorophenyl)-N-(5-hydroxy-4-oxo-3,4-dihydroquinazolin-2-yl)acetamide]
CC50 at 24 h [1]: > 25 µM
IC50 [5]: > 50 µM
CC50 at 24 h [6]: 59.9 µM
Microsomal Stability (%) Rat [14]: 57%
CC50 at 24 h [11]: 42.7 µM
CC50 [12]: 17.1 µM
CC50 at 24 h [13]: 13.7 µM
Microsomal Stability (%) Human [15]: 10%
IC50 ([4]; Vero cells): 0.11 µM
Cmax [9]: 1960 ng/mL
Tmax [9]: 3.33 h
half-life [9]: 6.69 h
AUC(0-t) [9]: 10800 ng·h/mL

O=c1[nH]c(Nc2cc(Cl)cc(Cl)c2)nc2cccc(O)c12 [Compound 5c, 2-((3,5-Dichlorophenyl)amino)-5-hydroxyquinazolin-4(3H)-one]
CC50 at 24 h [1]: > 25 µM
melting point: > 300 °C
SI (selectivity index) [4, 18]: > 168
IC50 ([4]; Vero cells): 0.15 µM

CCC(=O)N(c1cc(Cl)cc(Cl)c1)c1nc2cc(Cl)ccc2c(=O)[nH]1 [Compound 6a, N-(7-Chloro-4-oxo-3,4-dihydroquinazolin-2-yl)-N-(3,5-dichlorophenyl)propionamide]
CC50 at 24 h [1]: > 25 µM
melting point: 223 to 225 °C
SI (selectivity index) [4, 18]: > 117
IC50 ([4]; Vero cells): 0.21 µM

COC(=O)N(c1cc(Cl)cc(Cl)c1)c1nc2cc(Cl)ccc2c(=O)[nH]1 [Compound 6b, Methyl (7-Chloro-4-oxo-3,4-dihydroquinazolin-2-yl)(3,5-dichlorophenyl)carbamate]
melting point: 218 to 220 °C
CC50 at 24 h ([16]; uninfected Vero cells): > 25 µM
IC50 ([4]; Vero cells): 7.05 µM

CN(c1cc(Cl)cc(Cl)c1)c1nc2cc(Cl)ccc2c(=O)[nH]1 [Compound 6c, 7-Chloro-2-((3,5-dichlorophenyl)(methyl)amino)quinazolin-4(3H)-one]
CC50 at 24 h [1]: > 25 µM
melting point: 287 to 289 °C
IC50 ([4]; Vero cells): 5.66 µM

Cc1ccc(S(=O)(=O)N(c2cc(Cl)cc(Cl)c2)c2nc3cc(Cl)ccc3c(=O)[nH]2)cc1 [Compound 6d, N-(7-Chloro-4-oxo-3,4-dihydroquinazolin-2-yl)-N-(3,5-dichlorophenyl)-4-methylben-zenesulfonamide]
CC50 at 24 h [1]: > 25 µM
melting point: 163 to 165 °C
SI (selectivity index) [4, 18]: > 44
IC50 ([4]; Vero cells): 0.57 µM

O=C(CO)N(c1cc(Cl)cc(Cl)c1)c1nc2cc(Cl)ccc2c(=O)[nH]1 [Compound 8, N-(7-Chloro-4-oxo-3,4-dihydroquinazolin-2-yl)-N-(3,5-dichlorophenyl)-2-hydroxy-acetamide]
CC50 at 24 h [1]: > 25 µM
melting point: 263 to 265 °C
SI (selectivity index) [4, 18]: > 10
IC50 ([4]; Vero cells): 2.57 µM

CCC(CC)COC(=O)[C@H](C)N[P@](=O)(OC[C@H]1O[C@@](C#N)(c2ccc3c(N)ncnn23)[C@H](O)[C@@H]1O)Oc1ccccc1 [Remdesivir, reference compound]
CC50 at 24 h [16]: > 50 µM
SI (selectivity index) [4]: > 14
IC50 ([4]; Vero cells): 3.47 µM

O=C1CC2(CCCC2)CC(=O)N1CCCCN1CCN(c2ncccn2)CC1 [buspirone, reference compound]
Microsomal Stability (%) Rat [14]: < 5%
Microsomal Stability (%) Human [15]: < 10%

CC(C)C(=O)OC[C@H]1O[C@@H](n2ccc(NO)nc2=O)[C@H](O)[C@@H]1O [molnupiravir]
Incidence of hospitalization or death at day 29 ([17]; 48 out of 709 patients): 6.8%
Reduction in COVID-19-related hospitalization or death ([17]; versus placebo): 30%
